Results published in US4419123A, “Herbicidal 4-trifluoromethyl-3'-carbon-substituted-4'-substituted diphenyl ethers” (Rohm and Haas Company, priority 1981, dated 1983).

Legend:
[1] = Preemergence herbicidal activity (% control) against monocot weeds; assay type: in vivo; settings: pre-emergence, 336 h, average, about two weeks after application, read-out: Herbicidal activity (% control), preemergence, monocots; for activity at 2241.7 g/ha: 2 lb./A.; for activity at 4483.4 g/ha: 4 lb./A.
Text: (§1) barnyardgrass (Echinochloa crusgalli) crabgrass (Digitaria spp.) nutsedge (Cyperus esculentus)
(§2) At 2 and 4 pounds per acre:
(§3) **Bermudagrass (Cynodon dactylon)
(§4) *downy brome (Bromus tectorum) foxtail (Setaria faberii)
(§5) Johnsongrass (Sorghum halepense) […]
(§6) quackgrass (Agropyron repens)
(§7) *ryegrass (Lolium perenne)
(§8) *wild oats (Avena factua)
(§9) *yellow millet (Panicum miliaceum)
(§10) The following test procedure is employed.

[2] = Postemergence herbicidal activity (% control) against monocot weeds; assay type: in vivo; settings: post-emergence, 336 h, average, about two weeks after application, read-out: Herbicidal activity (% control), postemergence, monocots; for activity at 2241.7 g/ha: 2 lb./A.; for activity at 4483.4 g/ha: 4 lb./A.
Text: as §1, §2, §3, §4, §5, §6, §7, §8, §9, §10

[3] = test system: corn; assay: Crop tolerance (selective herbicidal activity), corn; assay type: in vivo
Experimental: as §10
(§11) Following the general test procedure of Example 37, diphenyl ethers are evaluated for significant tolerance (as shown by 50% or less kill of the test crop at levels of application which give more than 50% kill of many or all of the weeds of Example 73) towards some or all of the following common agronomic crops (not all compounds tested against all crops): alfalfa, snapbeans, corn, cotton, cucumbers, peanuts, rape, rice, safflower, soybeans, tomatoes, and wheat.

[4] = test system: peanuts; assay: Crop tolerance (selective herbicidal activity), peanuts; assay type: in vivo
Experimental: as §10, §11

[5] = test system: rice; assay: Crop tolerance (selective herbicidal activity), rice; assay type: in vivo
Experimental: as §10, §11

[6] = test system: soybeans; assay: Crop tolerance (selective herbicidal activity), soybeans; assay type: in vivo; settings: preemergence applications
Experimental: as §10, §11

[7] = test system: wheat; assay: Crop tolerance (selective herbicidal activity), wheat; assay type: in vivo
Experimental: as §10, §11

[8] = Preemergence herbicidal activity (% control) against dicot weeds; settings: pre-emergence, 336 h; for activity at 2241.7 g/ha: read-out: Herbicidal activity (% control), preemergence, dicots, 2 lb./A., average, about two weeks after application; for activity at 4483.4 g/ha: read-out: Herbicidal activity (% control), preemergence, dicots, 4 lb./A., average, about two weeks after application
[9] = Postemergence herbicidal activity (% control) against dicot weeds; settings: post-emergence, 336 h; for activity at 2241.7 g/ha: read-out: Herbicidal activity (% control), postemergence, dicots, 2 lb./A., average, about two weeks after application; for activity at 4483.4 g/ha: read-out: Herbicidal activity (% control), postemergence, dicots, 4 lb./A., average, about two weeks after application
[10] = postemergence applications or applications on transplanted rice

CCNc1cc(Oc2ccc(C(F)(F)F)cc2Cl)ccc1[N+](=O)[O-] [Example 19, 2-Chloro-α,α,α-trifluoro-p-tolyl-3-ethylamino-4-nitrophenyl ether]
activity at 2241.7 g/ha [1]: 77%
activity at 4483.4 g/ha [1]: 91%
activity at 2241.7 g/ha [2]: 94%
activity at 4483.4 g/ha [2]: 84%
Tolerance to corn ([3]; postemergence applications): Tolerance (significant tolerance (as shown by 50% or less kill of the test crop at levels of application which give more than 50% kill of many or all of the weeds of Example 73))
Tolerance to corn ([3]; preemergence applications): Tolerance (significant tolerance (as shown by 50% or less kill of the test crop at levels of application which give more than 50% kill of many or all of the weeds of Example 73))
Tolerance to peanuts ([4]; preemergence applications): Tolerance (significant tolerance (as shown by 50% or less kill of the test crop at levels of application which give more than 50% kill of many or all of the weeds of Example 73))
Tolerance to rice ([5]; preemergence applications): Tolerance (significant tolerance (as shown by 50% or less kill of the test crop at levels of application which give more than 50% kill of many or all of the weeds of Example 73))
Tolerance to soybeans [6]: Tolerance (significant tolerance (as shown by 50% or less kill of the test crop at levels of application which give more than 50% kill of many or all of the weeds of Example 73))
Tolerance to wheat ([7]; preemergence applications): Tolerance (significant tolerance (as shown by 50% or less kill of the test crop at levels of application which give more than 50% kill of many or all of the weeds of Example 73))
activity at 2241.7 g/ha [8]: 91%
activity at 4483.4 g/ha [8]: 96%
activity at 2241.7 g/ha [9]: 97%
activity at 4483.4 g/ha [9]: 98%

CSCCOc1cc(Oc2ccc(C(F)(F)F)cc2Cl)ccc1[N+](=O)[O-] [Example 40]
activity at 2241.7 g/ha [1]: 88%
activity at 4483.4 g/ha [1]: 86%
activity at 2241.7 g/ha [2]: 81%
activity at 4483.4 g/ha [2]: 64%
Tolerance to corn ([3]; postemergence applications): Tolerance (significant tolerance (as shown by 50% or less kill of the test crop at levels of application which give more than 50% kill of many or all of the weeds of Example 73))
Tolerance to corn ([3]; preemergence applications): Tolerance (significant tolerance (as shown by 50% or less kill of the test crop at levels of application which give more than 50% kill of many or all of the weeds of Example 73))
Tolerance to peanuts ([4]; postemergence applications): Tolerance (significant tolerance (as shown by 50% or less kill of the test crop at levels of application which give more than 50% kill of many or all of the weeds of Example 73))
Tolerance to peanuts ([4]; preemergence applications): Tolerance (significant tolerance (as shown by 50% or less kill of the test crop at levels of application which give more than 50% kill of many or all of the weeds of Example 73))
Tolerance to rice [5, 10]: Tolerance (significant tolerance (as shown by 50% or less kill of the test crop at levels of application which give more than 50% kill of many or all of the weeds of Example 73))
Tolerance to rice ([5]; preemergence applications): Tolerance (significant tolerance (as shown by 50% or less kill of the test crop at levels of application which give more than 50% kill of many or all of the weeds of Example 73))
Tolerance to soybeans [6]: Tolerance (significant tolerance (as shown by 50% or less kill of the test crop at levels of application which give more than 50% kill of many or all of the weeds of Example 73))
Tolerance to wheat ([7]; preemergence applications): Tolerance (significant tolerance (as shown by 50% or less kill of the test crop at levels of application which give more than 50% kill of many or all of the weeds of Example 73))
activity at 2241.7 g/ha [8]: 98%
activity at 4483.4 g/ha [8]: 92%
activity at 2241.7 g/ha [9]: 100%
activity at 4483.4 g/ha [9]: 100%

CCN(CC)c1cc(Oc2ccc(C(F)(F)F)cc2Cl)ccc1[N+](=O)[O-] [Example 21, 2-Chloro-α,α,α-trifluoro-p-tolyl-3-diethylamino-4-nitrophenyl ether]
activity at 2241.7 g/ha [1]: 79%
activity at 4483.4 g/ha [1]: 91%
activity at 2241.7 g/ha [2]: 90%
activity at 4483.4 g/ha [2]: 74%
Tolerance to corn ([3]; postemergence applications): Tolerance (significant tolerance (as shown by 50% or less kill of the test crop at levels of application which give more than 50% kill of many or all of the weeds of Example 73))
Tolerance to corn ([3]; preemergence applications): Tolerance (significant tolerance (as shown by 50% or less kill of the test crop at levels of application which give more than 50% kill of many or all of the weeds of Example 73))
Tolerance to peanuts ([4]; preemergence applications): Tolerance (significant tolerance (as shown by 50% or less kill of the test crop at levels of application which give more than 50% kill of many or all of the weeds of Example 73))
Tolerance to rice ([5]; preemergence applications): Tolerance (significant tolerance (as shown by 50% or less kill of the test crop at levels of application which give more than 50% kill of many or all of the weeds of Example 73))
Tolerance to soybeans [6]: Tolerance (significant tolerance (as shown by 50% or less kill of the test crop at levels of application which give more than 50% kill of many or all of the weeds of Example 73))
Tolerance to wheat ([7]; postemergence applications): Tolerance (significant tolerance (as shown by 50% or less kill of the test crop at levels of application which give more than 50% kill of many or all of the weeds of Example 73))
activity at 2241.7 g/ha [8]: 90%
activity at 4483.4 g/ha [8]: 99%
activity at 2241.7 g/ha [9]: 94%
activity at 4483.4 g/ha [9]: 96%

CC(=O)Oc1cc(Oc2ccc(C(F)(F)F)cc2Cl)ccc1[N+](=O)[O-] [Example 18, 2-Chloro-α,α,α-trifluoro-p-tolyl-3-acetoxy-4-nitrophenylether]
activity at 2241.7 g/ha [1]: 99%
activity at 4483.4 g/ha [1]: 67%
activity at 2241.7 g/ha [2]: 28%
activity at 4483.4 g/ha [2]: 28%
Tolerance to corn ([3]; postemergence applications): Tolerance (significant tolerance (as shown by 50% or less kill of the test crop at levels of application which give more than 50% kill of many or all of the weeds of Example 73))
Tolerance to peanuts ([4]; postemergence applications): Tolerance (significant tolerance (as shown by 50% or less kill of the test crop at levels of application which give more than 50% kill of many or all of the weeds of Example 73))
Tolerance to rice [5, 10]: Tolerance (significant tolerance (as shown by 50% or less kill of the test crop at levels of application which give more than 50% kill of many or all of the weeds of Example 73))
Tolerance to soybeans [6]: Tolerance (significant tolerance (as shown by 50% or less kill of the test crop at levels of application which give more than 50% kill of many or all of the weeds of Example 73))
Tolerance to wheat ([7]; postemergence applications): Tolerance (significant tolerance (as shown by 50% or less kill of the test crop at levels of application which give more than 50% kill of many or all of the weeds of Example 73))
Tolerance to wheat ([7]; preemergence applications): Tolerance (significant tolerance (as shown by 50% or less kill of the test crop at levels of application which give more than 50% kill of many or all of the weeds of Example 73))
activity at 2241.7 g/ha [8]: 100%
activity at 4483.4 g/ha [8]: 100%
activity at 2241.7 g/ha [9]: 98%
activity at 4483.4 g/ha [9]: 86%
